Data from ChEMBL document CHEMBL3352043, “Discovery of small-molecule inhibitors selectively targeting the DNA-binding domain of the human androgen receptor” (J Med Chem, 2014).
Activity calls are given as the source filed them. No cut-off for these calls is given here.

What was measured:
Androgen receptor [1] = target: T1, Androgen receptor (Homo sapiens, UniProt P10275); assay: Inhibition of androgen receptor transcriptional activity in human LNCaP cells after 3 days by eGFP assay; format: cell-based
T1 sequence (P10275 whole entry): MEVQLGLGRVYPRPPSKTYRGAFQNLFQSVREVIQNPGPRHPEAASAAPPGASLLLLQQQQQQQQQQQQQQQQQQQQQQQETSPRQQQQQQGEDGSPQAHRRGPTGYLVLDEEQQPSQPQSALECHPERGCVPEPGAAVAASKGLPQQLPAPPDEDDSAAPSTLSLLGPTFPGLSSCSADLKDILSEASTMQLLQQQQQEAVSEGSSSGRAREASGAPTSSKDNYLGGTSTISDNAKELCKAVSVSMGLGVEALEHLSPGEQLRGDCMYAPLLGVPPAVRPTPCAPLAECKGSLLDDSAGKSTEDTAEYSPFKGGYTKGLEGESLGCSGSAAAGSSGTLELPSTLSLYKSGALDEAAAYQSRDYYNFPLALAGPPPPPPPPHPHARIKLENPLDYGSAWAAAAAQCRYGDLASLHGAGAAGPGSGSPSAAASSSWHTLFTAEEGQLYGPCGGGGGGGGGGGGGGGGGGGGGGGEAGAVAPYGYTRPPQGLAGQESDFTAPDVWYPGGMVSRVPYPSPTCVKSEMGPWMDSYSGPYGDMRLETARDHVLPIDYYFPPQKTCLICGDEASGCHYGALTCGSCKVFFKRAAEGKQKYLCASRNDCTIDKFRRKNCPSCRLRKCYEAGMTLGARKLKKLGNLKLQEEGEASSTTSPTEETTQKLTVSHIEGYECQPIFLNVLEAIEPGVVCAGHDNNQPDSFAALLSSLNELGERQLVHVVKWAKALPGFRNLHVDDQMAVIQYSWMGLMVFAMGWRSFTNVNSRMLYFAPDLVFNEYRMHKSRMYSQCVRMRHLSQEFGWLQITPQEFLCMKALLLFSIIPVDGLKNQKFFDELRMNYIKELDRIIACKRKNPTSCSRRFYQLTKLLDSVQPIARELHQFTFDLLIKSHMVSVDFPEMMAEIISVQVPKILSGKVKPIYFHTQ

Androgen receptor [2] = target: T1, Androgen receptor; assay: Inhibition of androgen receptor in human LNCaP cells assessed as inhibition of prostate-specific antigen secretion into media after 3 days; format: cell-based
LNCaP = assay: Growth inhibition of AR-dependent human LNCAP cells at 0.001 to 3 uM after 3 days by MTS assay; format: functional, cell-based
[3] = Stability of the compound in RPMI plus 5% charcoal stripped serum media after 1 hr by MS analysis; format: physicochemical
[4] = Growth inhibition of AR-negative human PC3 cells after 3 days by MTS assay; format: cell-based; conditions: pc-3, 72 h

IC50 (Androgen receptor [1])	IC50 (Androgen receptor [2])	Stability [3]	SMILES	growth inhibition (GI) (LNCaP)	Activity [4]
1650 nM	160 nM		FC(F)(F)[C@H]1CN(c2nc(-c3ccccc3)cs2)CCO1		
1240 nM	840 nM		c1ccc(-c2cc(N3CCOCC3)cs2)cc1		
270 nM	150 nM		Oc1c(F)cccc1-c1csc(N2CCOCC2)n1		
2580 nM			c1ccc(-c2csc(N3CCOCC3)n2)nc1		
1440 nM	890 nM		N#Cc1ccc(-c2ccc(N3CCOCC3)s2)cc1		
7410 nM	8080 nM		Oc1ccc2nc(N3CCOCC3)sc2c1		
620 nM			c1ccc(-c2csc(N3CCSCC3)n2)cc1		
520 nM	510 nM		c1ccc(-c2ccc(N3CCOCC3)s2)cc1		
260 nM	220 nM		c1cc(-c2csc(N3CCOCC3)n2)cs1		
5800 nM	8430 nM		CCc1sc(N2CCOCC2)nc1-c1ccccc1		
1380 nM	2030 nM		Nc1ccccc1-c1csc(N2CCOCC2)n1		
1030 nM	690 nM		c1ccc(-c2csc(N3CCCCC3)n2)cc1		
1460 nM			Cc1sc(N2CCOCC2)nc1-c1ccccc1		
5040 nM			OCc1sc(N2CCOCC2)nc1-c1ccccc1		
2940 nM			c1cc(-c2csc(N3CCOCC3)n2)ccn1		
650 nM	410 nM		Fc1ccc(-c2csc(N3CCOCC3)n2)cc1		
3320 nM	2960 nM		Clc1ccc(-c2csc(N3CCOCC3)n2)cc1Cl		
610 nM	580 nM		FC(F)(F)c1cccc(-c2csc(N3CCOCC3)n2)c1		

Second part, the molecule before the results:

SMILES	IC50 (Androgen receptor [1])	IC50 (Androgen receptor [2])	Stability [3]	growth inhibition (GI) (LNCaP)	Activity [4]
Clc1c(Br)ncn1-c1csc(N2CCOCC2)n1	1450 nM	1280 nM			
COc1c(-c2csc(N3CCOCC3)n2)ccc(F)c1F	180 nM	250 nM			
Oc1c(-c2csc(N3CCOCC3)n2)ccc(F)c1F	800 nM	700 nM			
Cc1cc(/C=C/c2ccc3cc(N(C)C)ccc3[n+]2C)c(C)n1-c1ccccc1				inactive	
Brc1cn(-c2csc(N3CCOCC3)n2)cn1	2800 nM	1740 nM			
Ic1ncn(-c2csc(N3CCOCC3)n2)c1I	1730 nM	1810 nM	Stable		
Clc1ccc(-c2csc(N3CCOCC3)n2)c(Cl)c1	1660 nM	1320 nM			
Fc1ccc(-c2csc(-c3ccncc3)n2)cc1	1270 nM				
COc1c(F)cc(O)cc1-c1csc(N2CCOCC2)n1	3020 nM				
Nc1nc(-c2ccc3ccccc3c2)cs1	9160 nM	10600 nM			
Cc1scc(-c2csc(N3CCOCC3)n2)c1C	250 nM	430 nM			
Oc1ccc(-c2nc(-c3c[nH]c4ccccc34)cs2)cc1	5050 nM	6460 nM			
Cc1ncn(-c2csc(N3CCOCC3)n2)c1C	3560 nM	2420 nM			
c1ccc2nc(-c3ccncc3)ccc2c1	4200 nM	2260 nM			
Clc1ncn(-c2csc(N3CCOCC3)n2)c1I	2610 nM	4020 nM			
Cc1ccc(C)c(-c2csc(N3CCOCC3)n2)c1	620 nM	520 nM			
COc1cc(F)ccc1-c1csc(N2CCOCC2)n1	300 nM	230 nM			
Oc1ccc(-c2ccc3ccccc3n2)cc1	9840 nM				
Fc1ccc(-c2csc(N3CCSCC3)n2)cc1	1590 nM				
Oc1cc(F)ccc1-c1csc(N2CCOCC2)n1	1190 nM	810 nM			
CNc1nc(-c2ccc3ccccc3c2)cs1	3170 nM	3910 nM			
c1ccc(-c2csc(-c3ccncc3)n2)cc1	1200 nM	630 nM			
CS(=O)(=O)c1c(F)cccc1-c1csc(N2CCOCC2)n1	3560 nM				
Clc1ncn(-c2csc(N3CCOCC3)n2)c1Br	330 nM	440 nM			
Cc1cc(C=Cc2ccc3cc(N(C)C)ccc3[n+]2C)c(C)n1-c1ccccc1.O=C([O-])c1cc2ccccc2c(Cc2c(O)c(C(=O)O)cc3ccccc23)c1O					Toxic
Clc1cn(-c2csc(N3CCOCC3)n2)cn1	960 nM	720 nM			
Clc1ncn(-c2csc(N3CCOCC3)n2)c1Cl	680 nM	570 nM	Stable		
